PubChem BioAssay AID1963986 (Molecular Pharmacology Branch, DTP, NCI, 2024)
Values belong to the compound of their own block, whether it stands above or below them.

System: 171881-019-R-J1-PDC tumor spheroid viability
Assay: Anticancer human tumor 171881-019-R-J1-PDC patient-derived invasive breast carcinoma cell line growth inhibition [PI3K]
Settings: spheroids with HUVEC and MSC; for viability, T/C: stronger effect = lower value
Summary of the method: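 Spheroid viability read-out. Co-cultures contained the tumor line plus HUVEC and human MSCs. Each agent was paired with a PI3K inhibitor (inavolisib, alpelisib, duvelisib, copanlisib) across half-log dilutions starting at clinical Cmax, or at 10 microM when Cmax was unknown.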

[1] = curve of first compound, second compound 0.0316 µM
[2] = curve of first compound, second compound 0.1 µM
[3] = curve of first compound, second compound 0.316 µM
[4] = curve of first compound, second compound 1 µM
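Also: spheroids exposed to compound for 7 days before viability read.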
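For viability, T/C in this document: 100% = DMSO vehicle-treated spheroids.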

IC50 [1]: 628 nM | IC50 [2]: 664 nM | IC50 [3]: 547 nM | IC50 [4]: 423 nM | IC50 (curve of first compound, second compound 3.16 µM): 143 nM | IC50 (curve of first compound, second compound 10 µM): < 9.49 nM
SMILES: Cn1cnc2c(F)c(Nc3ccc(Br)cc3Cl)c(C(=O)NOCCO)cc21 + CC(Nc1ncnc2nc[nH]c12)c1cc2cccc(Cl)c2c(=O)n1-c1ccccc1
viability, T/C (second compound 0.0316 µM, first compound 0.00949 µM): 93.5% | viability, T/C (second compound 0.0316 µM, first compound 0.03 µM): 84% | viability, T/C (second compound 0.0316 µM, first compound 0.0949 µM): 89.2% | viability, T/C (second compound 0.0316 µM, first compound 0.3 µM): 63.5% | viability, T/C (second compound 0.0316 µM, first compound 0.949 µM): 42.2% | viability, T/C (second compound 0.0316 µM, first compound 3 µM): 19.5% | viability, T/C (second compound 0.1 µM, first compound 0.00949 µM): 87.3% | viability, T/C (second compound 0.1 µM, first compound 0.03 µM): 84.7% | viability, T/C (second compound 0.1 µM, first compound 0.0949 µM): 75% | viability, T/C (second compound 0.1 µM, first compound 0.3 µM): 70.8% | viability, T/C (second compound 0.1 µM, first compound 0.949 µM): 40.7% | viability, T/C (second compound 0.1 µM, first compound 3 µM): 18.3% | viability, T/C (second compound 0.316 µM, first compound 0.00949 µM): 96.6% | viability, T/C (second compound 0.316 µM, first compound 0.03 µM): 91% | viability, T/C (second compound 0.316 µM, first compound 0.0949 µM): 77.2% | viability, T/C (second compound 0.316 µM, first compound 0.3 µM): 63.2% | viability, T/C (second compound 0.316 µM, first compound 0.949 µM): 38.6% | viability, T/C (second compound 0.316 µM, first compound 3 µM): 17.5% | viability, T/C (second compound 1 µM, first compound 0.00949 µM): 88.9% | viability, T/C (second compound 1 µM, first compound 0.03 µM): 74.4% | viability, T/C (second compound 1 µM, first compound 0.0949 µM): 71.8% | viability, T/C (second compound 1 µM, first compound 0.3 µM): 57.9% | viability, T/C (second compound 1 µM, first compound 0.949 µM): 34.6% | viability, T/C (second compound 1 µM, first compound 3 µM): 15.4% | viability, T/C (second compound 3.16 µM, first compound 0.00949 µM): 74.4% | viability, T/C (second compound 3.16 µM, first compound 0.03 µM): 65.3% | viability, T/C (second compound 3.16 µM, first compound 0.0949 µM): 55.9% | viability, T/C (second compound 3.16 µM, first compound 0.3 µM): 40.5% | viability, T/C (second compound 3.16 µM, first compound 0.949 µM): 25.8% | viability, T/C (second compound 3.16 µM, first compound 3 µM): 9.87% | viability, T/C (second compound 10 µM, first compound 0.00949 µM): 46.2% | viability, T/C (second compound 10 µM, first compound 0.03 µM): 44.2% | viability, T/C (second compound 10 µM, first compound 0.0949 µM): 37.8% | viability, T/C (second compound 10 µM, first compound 0.3 µM): 31.2% | viability, T/C (second compound 10 µM, first compound 0.949 µM): 14.9% | viability, T/C (second compound 10 µM, first compound 3 µM): 4.91%

IC50 (curve of compound): 653 nM [middle of 4 runs]
SMILES: Cn1cnc2c(F)c(Nc3ccc(Br)cc3Cl)c(C(=O)NOCCO)cc21
viability, T/C (compound 0.00949 µM): 90.4% [middle of 4 runs] | viability, T/C (compound 0.03 µM): 83.8% [middle of 4 runs] | viability, T/C (compound 0.0949 µM): 80.9% [middle of 4 runs] | viability, T/C (compound 0.3 µM): 64.1% [middle of 4 runs] | viability, T/C (compound 0.949 µM): 42.6% [middle of 4 runs] | viability, T/C (compound 3 µM): 19% [middle of 4 runs]

IC50 (curve of first compound, second compound 0.00316 µM): 3.55 nM | IC50 (curve of first compound, second compound 0.01 µM): < 0.316 nM | IC50 [1]: < 0.316 nM | IC50 [2]: < 0.316 nM | IC50 [3]: < 0.316 nM | IC50 [4]: < 0.316 nM
SMILES: CC(C)n1nc(-c2ccc3oc(N)nc3c2)c2c(N)ncnc21 + COc1c(OCCCN2CCOCC2)ccc2c3n(c(=NC(=O)c4cnc(N)nc4)nc12)CCN3
viability, T/C (second compound 0.00316 µM, first compound 0.000316 µM): 61.1% | viability, T/C (second compound 0.00316 µM, first compound 0.001 µM): 66.3% | viability, T/C (second compound 0.00316 µM, first compound 0.00316 µM): 47.6% | viability, T/C (second compound 0.00316 µM, first compound 0.01 µM): 36.1% | viability, T/C (second compound 0.00316 µM, first compound 0.0316 µM): 13.1% | viability, T/C (second compound 0.00316 µM, first compound 0.1 µM): 3.55% | viability, T/C (second compound 0.01 µM, first compound 0.000316 µM): 46% | viability, T/C (second compound 0.01 µM, first compound 0.001 µM): 45.8% | viability, T/C (second compound 0.01 µM, first compound 0.00316 µM): 36.4% | viability, T/C (second compound 0.01 µM, first compound 0.01 µM): 19.3% | viability, T/C (second compound 0.01 µM, first compound 0.0316 µM): 8.72% | viability, T/C (second compound 0.01 µM, first compound 0.1 µM): 2.78% | viability, T/C (second compound 0.0316 µM, first compound 0.000316 µM): 23.6% | viability, T/C (second compound 0.0316 µM, first compound 0.001 µM): 22.3% | viability, T/C (second compound 0.0316 µM, first compound 0.00316 µM): 16% | viability, T/C (second compound 0.0316 µM, first compound 0.01 µM): 8.85% | viability, T/C (second compound 0.0316 µM, first compound 0.0316 µM): 4.14% | viability, T/C (second compound 0.0316 µM, first compound 0.1 µM): 2.34% | viability, T/C (second compound 0.1 µM, first compound 0.000316 µM): 8.49% | viability, T/C (second compound 0.1 µM, first compound 0.001 µM): 7.85% | viability, T/C (second compound 0.1 µM, first compound 0.00316 µM): 5.37% | viability, T/C (second compound 0.1 µM, first compound 0.01 µM): 3.59% | viability, T/C (second compound 0.1 µM, first compound 0.0316 µM): 2.66% | viability, T/C (second compound 0.1 µM, first compound 0.1 µM): 1.6% | viability, T/C (second compound 0.316 µM, first compound 0.000316 µM): 2.47% | viability, T/C (second compound 0.316 µM, first compound 0.001 µM): 2.41% | viability, T/C (second compound 0.316 µM, first compound 0.00316 µM): 2.58% | viability, T/C (second compound 0.316 µM, first compound 0.01 µM): 1.51% | viability, T/C (second compound 0.316 µM, first compound 0.0316 µM): 1.36% | viability, T/C (second compound 0.316 µM, first compound 0.1 µM): 1.1% | viability, T/C (second compound 1 µM, first compound 0.000316 µM): 1.08% | viability, T/C (second compound 1 µM, first compound 0.001 µM): 0.86% | viability, T/C (second compound 1 µM, first compound 0.00316 µM): 1.3% | viability, T/C (second compound 1 µM, first compound 0.01 µM): 1.16% | viability, T/C (second compound 1 µM, first compound 0.0316 µM): 1.03% | viability, T/C (second compound 1 µM, first compound 0.1 µM): 1.05%

IC50 (curve of compound): > 10000 nM
SMILES: C=CC(=O)N1CCN(c2nc(=O)n(-c3c(C)ccnc3C(C)C)c3nc(-c4c(O)cccc4F)c(F)cc23)C(C)C1 (stereo not drawn)
viability, T/C (compound 0.0316 µM): 95.3% [middle of 4 runs] | viability, T/C (compound 0.1 µM): 84.4% [middle of 4 runs] | viability, T/C (compound 0.316 µM): 92.5% [middle of 4 runs] | viability, T/C (compound 1 µM): 94.6% [middle of 4 runs] | viability, T/C (compound 3.16 µM): 91.7% [middle of 4 runs] | viability, T/C (compound 10 µM): 56.1% [middle of 4 runs]
